Assay results as given in paper PMC4631615 (Bipolar disorders, 2015).
Several values for one entry are separate records, joined by “and”; a condition that tells them apart may be missing. Identical values can stand only once. Marks after values point to notes of the source that are not given here.

Assays:
pregnant SWV mice [1] = test: Maternal body weight and weight gain, teratogenicity study; assay type: in vivo, mouse; settings: mean ± SD
pregnant SWV mice [2] = test: Pregnancy outcomes; assay type: in vivo, mouse
SWV mouse fetuses [3] = test: Skeletal examination of fetuses; assay type: in vivo
SWV mouse fetuses [4] = settings: for Overall teratogenicity under the experimental conditions: SWV mice, p.o. GD 4–17, doses as fractions of LD50
mouse = settings: source not given; cited from earlier work
NMRI mice = settings: injected on GD 8 with 3 mmol/kg; cited from earlier work
[5] = 1/6.54 of LD50 (RIS 9.6, OLA 32.1, VCD 152.8 mg/kg) p.o. GD 4–17
[6] = 1/13.1 of LD50 (OLA 16.05 mg/kg) p.o. GD 4–17
[7] = 1/6.54 of LD50 (RIS 9.6, OLA 32.1, VCD 152.8 mg/kg) p.o. GD 4–17, mean ± SD
[8] = 1/4.36 of LD50 (RIS 14.5, VCD 229.2 mg/kg) p.o. GD 4–17

Cc1cc2c(s1)Nc1ccccc1N=C2N1CCN(C)CC1 [OLA, 2-methyl-4-(4-methyl-1-piperazinyl)-10H-thieno(2,3-b)([1],[5])benzodiazepine]
Dams net weight gain (pregnant SWV mice [1]; [5]): 5.6 ± 2.0 ^a grams | Dams weight GD 18 (pregnant SWV mice [1]; [5]): 34.9 grams and 34.9 ± 4.0 ^a grams | Dams weight gain (pregnant SWV mice [1]; [5]): 8.0 ± 3.5 ^a grams | Dams net weight gain (pregnant SWV mice [1]; [6]): 8.8 ± 1.8 grams | Dams weight GD 18 (pregnant SWV mice [1]; [6]): 46.5 ± 3.6 grams | Dams weight gain (pregnant SWV mice [1]; [6]): 18.7 ± 3.8 grams | Fetus weight (pregnant SWV mice [2]; [7]): 0.66 ± 0.09 ^a g | Resorptions/litter (pregnant SWV mice [2]; [7]): 9.6 ± 3.9 ^a | Fetus weight (pregnant SWV mice [2]; 1/13.1 of LD50 (OLA 16.05 mg/kg) p.o. GD 4–17, mean ± SD): 0.83 ± 0.10 ^a g | Embryos resorbed (pregnant SWV mice [2]; 1/13.1 of LD50 (OLA 16.05 mg/kg, low dose) p.o. GD 4–17): 15% | All vertebra: incomplete ossification, affected fetuses (SWV mouse fetuses [3]; [5]): 3 | All vertebra: incomplete ossification, affected litters (SWV mouse fetuses [3]; [5]): 1 | Cervical vertebra: ossified fusion of centrums, affected fetuses (SWV mouse fetuses [3]; [5]): 0 | Fetuses with skeletal abnormalities, % (SWV mouse fetuses [3]; [5]): 79.2% | Fibula: bent, affected fetuses (SWV mouse fetuses [3]; [5]): 0 | Metacarpal: absent ossification, affected fetuses (SWV mouse fetuses [3]; [5]): 12 | Metacarpal: absent ossification, affected litters (SWV mouse fetuses [3]; [5]): 8 | Metacarpal: incomplete ossification, affected fetuses (SWV mouse fetuses [3]; [5]): 6 | Metacarpal: incomplete ossification, affected litters (SWV mouse fetuses [3]; [5]): 3 | Metatarsal: absent ossification, affected fetuses (SWV mouse fetuses [3]; [5]): 14 | Metatarsal: absent ossification, affected litters (SWV mouse fetuses [3]; [5]): 9 | Metatarsal: incomplete ossification, affected fetuses (SWV mouse fetuses [3]; [5]): 4 | Metatarsal: incomplete ossification, affected litters (SWV mouse fetuses [3]; [5]): 3 | Ribs: absent 13th, affected fetuses (SWV mouse fetuses [3]; [5]): 1/1 | Ribs: absent 13th, affected litters (SWV mouse fetuses [3]; [5]): 1/1 | Ribs: branched, affected fetuses (SWV mouse fetuses [3]; [5]): 0 | Skull: incomplete ossification, affected fetuses (SWV mouse fetuses [3]; [5]): 1/1 | Skull: incomplete ossification, affected litters (SWV mouse fetuses [3]; [5]): 1/1 | Skull: interparietal incomplete ossification, affected fetuses (SWV mouse fetuses [3]; [5]): 1/1 | Skull: interparietal incomplete ossification, affected litters (SWV mouse fetuses [3]; [5]): 1/1 | Skull: parietal incomplete ossification, affected fetuses (SWV mouse fetuses [3]; [5]): 0 | Skull: supraoccipital incomplete ossification, affected fetuses (SWV mouse fetuses [3]; [5]): 1/1 | Skull: supraoccipital incomplete ossification, affected litters (SWV mouse fetuses [3]; [5]): 1/1 | Sternebra: absent ossification, affected fetuses (SWV mouse fetuses [3]; [5]): 8 | Sternebra: absent ossification, affected litters (SWV mouse fetuses [3]; [5]): 5 | Sternebra: incomplete ossification, affected fetuses (SWV mouse fetuses [3]; [5]): 8 | Sternebra: incomplete ossification, affected litters (SWV mouse fetuses [3]; [5]): 7 | Sternebra: misaligned, affected fetuses (SWV mouse fetuses [3]; [5]): 0 | Sternebra: misshapen, affected fetuses (SWV mouse fetuses [3]; [5]): 0 | Whole skeletal system: incomplete ossification, affected fetuses (SWV mouse fetuses [3]; [5]): 7 | Whole skeletal system: incomplete ossification, affected litters (SWV mouse fetuses [3]; [5]): 3 | All vertebra: incomplete ossification, affected fetuses (SWV mouse fetuses [3]; [6]): 0 | Cervical vertebra: ossified fusion of centrums, affected fetuses (SWV mouse fetuses [3]; [6]): 0 | Fibula: bent, affected fetuses (SWV mouse fetuses [3]; [6]): 0 | Metacarpal: absent ossification, affected fetuses (SWV mouse fetuses [3]; [6]): 1/1 | Metacarpal: absent ossification, affected litters (SWV mouse fetuses [3]; [6]): 1/1 | Metacarpal: incomplete ossification, affected fetuses (SWV mouse fetuses [3]; [6]): 47 | Metacarpal: incomplete ossification, affected litters (SWV mouse fetuses [3]; [6]): 12 | Metatarsal: absent ossification, affected fetuses (SWV mouse fetuses [3]; [6]): 8/8 ^b | Metatarsal: absent ossification, affected litters (SWV mouse fetuses [3]; [6]): 8/8 ^b | Metatarsal: incomplete ossification, affected fetuses (SWV mouse fetuses [3]; [6]): 20 | Metatarsal: incomplete ossification, affected litters (SWV mouse fetuses [3]; [6]): 8 | Ribs: absent 13th, affected fetuses (SWV mouse fetuses [3]; [6]): 0 | Ribs: branched, affected fetuses (SWV mouse fetuses [3]; [6]): 0 | Skull: incomplete ossification, affected fetuses (SWV mouse fetuses [3]; [6]): 0 | Skull: interparietal incomplete ossification, affected fetuses (SWV mouse fetuses [3]; [6]): 4 | Skull: interparietal incomplete ossification, affected litters (SWV mouse fetuses [3]; [6]): 3 | Skull: parietal incomplete ossification, affected fetuses (SWV mouse fetuses [3]; [6]): 3 | Skull: parietal incomplete ossification, affected litters (SWV mouse fetuses [3]; [6]): 2 | Skull: supraoccipital incomplete ossification, affected fetuses (SWV mouse fetuses [3]; [6]): 1/1 | Skull: supraoccipital incomplete ossification, affected litters (SWV mouse fetuses [3]; [6]): 1/1 | Sternebra: absent ossification, affected fetuses (SWV mouse fetuses [3]; [6]): 4/4 | Sternebra: absent ossification, affected litters (SWV mouse fetuses [3]; [6]): 4/4 | Sternebra: incomplete ossification, affected fetuses (SWV mouse fetuses [3]; [6]): 25 | Sternebra: incomplete ossification, affected litters (SWV mouse fetuses [3]; [6]): 11 | Sternebra: misaligned, affected fetuses (SWV mouse fetuses [3]; [6]): 0 | Sternebra: misshapen, affected fetuses (SWV mouse fetuses [3]; [6]): 0 | Whole skeletal system: incomplete ossification, affected fetuses (SWV mouse fetuses [3]; [6]): 0 | Overall teratogenicity under the experimental conditions (SWV mouse fetuses [4]): the most teratogenic of the three test drugs | Dilated brain ventricles, affected litters (SWV mouse fetuses [4]; female, SWV, mouse, in vivo): 2/2 | Dilated renal pelvis, affected litters (SWV mouse fetuses [4]; female, SWV, mouse, in vivo): 2/2 | Exencephaly, affected fetuses (SWV mouse fetuses [4]; female, SWV, mouse, in vivo): 0 | Malposition stomach, affected fetuses (SWV mouse fetuses [4]; female, SWV, mouse, in vivo): 0 | Right aortic arch, affected fetuses (SWV mouse fetuses [4]; female, SWV, mouse, in vivo): 0 | LD50 mouse, oral (mouse): 210 mg/kg

Cc1nc2n(c(=O)c1CCN1CCC(c3noc4cc(F)ccc34)CC1)CCCC2 [RIS, 3-(2-(4-(6-fluoro-1,2-benzisoxazol-3-yl)piperidino)ethyl)-6,7,8,9-tetrahydro-2-methyl-4H-pyrido(1,2-a)pyrimidin-4-one]
Dams net weight gain (pregnant SWV mice [1]; [8]): 7.4 ± 2.3 ^a grams | Dams weight GD 18 (pregnant SWV mice [1]; [8]): 47.1 ± 3.2 grams | Dams weight gain (pregnant SWV mice [1]; [8]): 18.1 grams and 18.1 ± 2.5 ^a grams | Dams net weight gain (pregnant SWV mice [1]; [5]): 7.5 ± 2.0 grams | Dams weight GD 18 (pregnant SWV mice [1]; [5]): 46.9 ± 4.8 grams | Dams weight gain (pregnant SWV mice [1]; [5]): 19.4 ± 4.2 grams | Resorption rate (pregnant SWV mice [2]; 1/4.36 of LD50 (RIS 14.5 mg/kg) p.o. GD 4–17): 12.4% | Fetus weight (pregnant SWV mice [2]; 1/4.36 of LD50 (RIS 14.5, VCD 229.2 mg/kg) p.o. GD 4–17, mean ± SD): 0.83 ± 0.05 ^a g | Fetus weight (pregnant SWV mice [2]; [7]): 0.89 ± 0.06 g | All vertebra: incomplete ossification, affected fetuses (SWV mouse fetuses [3]; [8]): 0 | Cervical vertebra: ossified fusion of centrums, affected fetuses (SWV mouse fetuses [3]; [8]): 0 | Fetuses with skeletal abnormalities, % (SWV mouse fetuses [3]; [8]): 20.1% | Fibula: bent, affected fetuses (SWV mouse fetuses [3]; [8]): 0 | Metacarpal: absent ossification, affected fetuses (SWV mouse fetuses [3]; [8]): 6 | Metacarpal: absent ossification, affected litters (SWV mouse fetuses [3]; [8]): 1 | Metacarpal: incomplete ossification, affected fetuses (SWV mouse fetuses [3]; [8]): 0 | Metatarsal: absent ossification, affected fetuses (SWV mouse fetuses [3]; [8]): 6 | Metatarsal: absent ossification, affected litters (SWV mouse fetuses [3]; [8]): 1 | Metatarsal: incomplete ossification, affected fetuses (SWV mouse fetuses [3]; [8]): 0 | Ribs: absent 13th, affected fetuses (SWV mouse fetuses [3]; [8]): 0 | Ribs: branched, affected fetuses (SWV mouse fetuses [3]; [8]): 0 | Skull: incomplete ossification, affected fetuses (SWV mouse fetuses [3]; [8]): 6 | Skull: incomplete ossification, affected litters (SWV mouse fetuses [3]; [8]): 1 | Skull: interparietal incomplete ossification, affected fetuses (SWV mouse fetuses [3]; [8]): 0 | Skull: parietal incomplete ossification, affected fetuses (SWV mouse fetuses [3]; [8]): 1/1 | Skull: parietal incomplete ossification, affected litters (SWV mouse fetuses [3]; [8]): 1/1 | Skull: supraoccipital incomplete ossification, affected fetuses (SWV mouse fetuses [3]; [8]): 0 | Sternebra: absent ossification, affected fetuses (SWV mouse fetuses [3]; [8]): 7 | Sternebra: absent ossification, affected litters (SWV mouse fetuses [3]; [8]): 2 | Sternebra: incomplete ossification, affected fetuses (SWV mouse fetuses [3]; [8]): 13 | Sternebra: incomplete ossification, affected litters (SWV mouse fetuses [3]; [8]): 9 | Sternebra: misaligned, affected fetuses (SWV mouse fetuses [3]; [8]): 0 | Sternebra: misshapen, affected fetuses (SWV mouse fetuses [3]; [8]): 1/1 | Sternebra: misshapen, affected litters (SWV mouse fetuses [3]; [8]): 1/1 | Whole skeletal system: incomplete ossification, affected fetuses (SWV mouse fetuses [3]; [8]): 2 | Whole skeletal system: incomplete ossification, affected litters (SWV mouse fetuses [3]; [8]): 1 | All vertebra: incomplete ossification, affected fetuses (SWV mouse fetuses [3]; [5]): 0 | Cervical vertebra: ossified fusion of centrums, affected fetuses (SWV mouse fetuses [3]; [5]): 0 | Fetuses with skeletal abnormalities, % (SWV mouse fetuses [3]; [5]): 10.8% | Fibula: bent, affected fetuses (SWV mouse fetuses [3]; [5]): 0 | Metacarpal: absent ossification, affected fetuses (SWV mouse fetuses [3]; [5]): 0 | Metacarpal: incomplete ossification, affected fetuses (SWV mouse fetuses [3]; [5]): 1/1 | Metacarpal: incomplete ossification, affected litters (SWV mouse fetuses [3]; [5]): 1/1 | Metatarsal: absent ossification, affected fetuses (SWV mouse fetuses [3]; [5]): 0 | Metatarsal: incomplete ossification, affected fetuses (SWV mouse fetuses [3]; [5]): 1/1 | Metatarsal: incomplete ossification, affected litters (SWV mouse fetuses [3]; [5]): 1/1 | Ribs: absent 13th, affected fetuses (SWV mouse fetuses [3]; [5]): 0 | Ribs: branched, affected fetuses (SWV mouse fetuses [3]; [5]): 0 | Skull: incomplete ossification, affected fetuses (SWV mouse fetuses [3]; [5]): 3 | Skull: incomplete ossification, affected litters (SWV mouse fetuses [3]; [5]): 2 | Skull: interparietal incomplete ossification, affected fetuses (SWV mouse fetuses [3]; [5]): 0 | Skull: parietal incomplete ossification, affected fetuses (SWV mouse fetuses [3]; [5]): 0 | Skull: supraoccipital incomplete ossification, affected fetuses (SWV mouse fetuses [3]; [5]): 0 | Sternebra: absent ossification, affected fetuses (SWV mouse fetuses [3]; [5]): 0 | Sternebra: incomplete ossification, affected fetuses (SWV mouse fetuses [3]; [5]): 5 | Sternebra: incomplete ossification, affected litters (SWV mouse fetuses [3]; [5]): 4 | Sternebra: misaligned, affected fetuses (SWV mouse fetuses [3]; [5]): 0 | Sternebra: misshapen, affected fetuses (SWV mouse fetuses [3]; [5]): 3/3 | Sternebra: misshapen, affected litters (SWV mouse fetuses [3]; [5]): 3/3 | Whole skeletal system: incomplete ossification, affected fetuses (SWV mouse fetuses [3]; [5]): 1/1 | Whole skeletal system: incomplete ossification, affected litters (SWV mouse fetuses [3]; [5]): 1/1 | Overall teratogenicity under the experimental conditions (SWV mouse fetuses [4]): maternal-, embryo-, and fetotoxic | Cleft palate, affected fetuses (SWV mouse fetuses [4]; female, SWV, mouse, in vivo): 8 | Dilated brain ventricles, affected litters (SWV mouse fetuses [4]; female, SWV, mouse, in vivo): 2/2 | Exencephaly, affected litters (SWV mouse fetuses [4]; female, SWV, mouse, in vivo): 1/1 | Fetuses with external abnormalities, % (SWV mouse fetuses [4]; female, SWV, mouse, in vivo): 0.4% | Malposition stomach, affected fetuses (SWV mouse fetuses [4]; female, SWV, mouse, in vivo): 0 | Right aortic arch, affected fetuses (SWV mouse fetuses [4]; female, SWV, mouse, in vivo): 0 | LD50 mouse, oral (mouse): 63 mg/kg

CCCC(CCC)C(=O)O [VPA, valproic acid]
Exposed fetuses with exencephaly (NMRI mice): 52% | Resorption rate (NMRI mice): 53%
